{"source": "patent US12447167B2", "about": "“GM-CSF-producing t-cell control agent and Th1/Th2 immune balance regulator” (National Center of Neurology and Psychiatry, priority 2014, dated 2025)", "assay": "Disposition after single oral dose, humans (normal subjects)", "format": "in vivo, human", "design": "concentration in blood: unit not given here", "settings": "for AUC(0-inf) / AUC(0-t) / half-life / Cmax / Tmax: human; for AUC(0-inf) / AUC(0-t) / half-life: blood; for AUC(0-inf) / AUC(0-t) / half-life / Cmax / Tmax / concentration in blood: normal subjects; for Cmax / Tmax: plasma", "experimental": "After a single dose of compound 31 labeled with ^14C was orally administered at a predetermined dose to each of a male mouse, a male rat, and a male cynomolgus monkey under fasting conditions, the concentration in blood was measured after a lapse of a given time, and parameters such as maximum plasma concentration Cmax, time Tmax to reach the maximum plasma concentration, half-life t1/2, area under curve AUC0-∞, mean retention time MRT0-∞, and bioavailability BA were calculated. The concentration in blood in humans (normal subjects) was measured and each of the parameters was calculated, in the similar manner as above except that ^14C-unlabeled compound 31 was used.\nIn the tables, “N.D.” means not detected.\nIn this context, assuming the body weights of the humans were 60 kg, the doses were corrected to be the same, and the value of AUC0-∞ was compared between the mouse, the rat, and the cynomolgus monkey, and the humans. […] Specifically, AUC0-∞ for the humans was 2.72 to 8.94 times AUC0-∞ for the mouse, 4.77 to 15.7 times AUC0-∞ for the rat, and 6.69 to 22.0 times AUC0-∞ for the cynomolgus monkey."}
{"compound": "CCCCCCCCCCCCCCCCCCCCCCCC(=O)NC(COC1OC(CO)C(O)C(O)C1O)[C@H](O)C(O)CCCCC", "note": "(stereo in doubt) [compound 31, (2S,3S,4R)-1-O-(α-D-galactosyl)-2-(N-tetracosanoylamino)-1,3,4-nonanetriol]", "values": [{"measurement": "species difference (fold) of dose-corrected AUC0-∞, human vs cynomolgus monkey", "setting": "human 0.3 mg/body (60 kg assumed) vs cynomolgus monkey 10 mg/kg", "value": 19.70, "unit": "fold"}, {"measurement": "species difference (fold) of dose-corrected AUC0-∞, human vs mouse", "setting": "human 0.3 mg/body (60 kg assumed) vs mouse 5 mg/kg", "value": 8.01, "unit": "fold"}, {"measurement": "species difference (fold) of dose-corrected AUC0-∞, human vs rat", "setting": "human 0.3 mg/body (60 kg assumed) vs rat 10 mg/kg", "value": 14.05, "unit": "fold"}, {"measurement": "species difference (fold) of dose-corrected AUC0-∞, human vs cynomolgus monkey", "setting": "human 1 mg/body (60 kg assumed) vs cynomolgus monkey 10 mg/kg", "value": 21.99, "unit": "fold"}, {"measurement": "species difference (fold) of dose-corrected AUC0-∞, human vs mouse", "setting": "human 1 mg/body (60 kg assumed) vs mouse 5 mg/kg", "value": 8.94, "unit": "fold"}, {"measurement": "species difference (fold) of dose-corrected AUC0-∞, human vs rat", "setting": "human 1 mg/body (60 kg assumed) vs rat 10 mg/kg", "value": 15.69, "unit": "fold"}, {"measurement": "species difference (fold) of dose-corrected AUC0-∞, human vs cynomolgus monkey", "setting": "human 3 mg/body (60 kg assumed) vs cynomolgus monkey 10 mg/kg", "value": 12.29, "unit": "fold"}, {"measurement": "species difference (fold) of dose-corrected AUC0-∞, human vs mouse", "setting": "human 3 mg/body (60 kg assumed) vs mouse 5 mg/kg", "value": 5.00, "unit": "fold"}, {"measurement": "species difference (fold) of dose-corrected AUC0-∞, human vs rat", "setting": "human 3 mg/body (60 kg assumed) vs rat 10 mg/kg", "value": 8.77, "unit": "fold"}, {"measurement": "species difference (fold) of dose-corrected AUC0-∞, human vs cynomolgus monkey", "setting": "human 10 mg/body (60 kg assumed) vs cynomolgus monkey 10 mg/kg", "value": 9.62, "unit": "fold"}, {"measurement": "species difference (fold) of dose-corrected AUC0-∞, human vs mouse", "setting": "human 10 mg/body (60 kg assumed) vs mouse 5 mg/kg", "value": 3.91, "unit": "fold"}, {"measurement": "species difference (fold) of dose-corrected AUC0-∞, human vs rat", "setting": "human 10 mg/body (60 kg assumed) vs rat 10 mg/kg", "value": 6.86, "unit": "fold"}, {"measurement": "species difference (fold) of dose-corrected AUC0-∞, human vs cynomolgus monkey", "setting": "human 30 mg/body (60 kg assumed) vs cynomolgus monkey 10 mg/kg", "value": 6.69, "unit": "fold"}, {"measurement": "species difference (fold) of dose-corrected AUC0-∞, human vs mouse", "setting": "human 30 mg/body (60 kg assumed) vs mouse 5 mg/kg", "value": 2.72, "unit": "fold"}, {"measurement": "species difference (fold) of dose-corrected AUC0-∞, human vs rat", "setting": "human 30 mg/body (60 kg assumed) vs rat 10 mg/kg", "value": 4.77, "unit": "fold"}, {"measurement": "AUC(0-inf)", "setting": "0.3 mg/body oral", "value": 23.4, "unit": "ng·h/mL"}, {"measurement": "AUC(0-t)", "setting": "0.3 mg/body oral", "value": 11.7, "unit": "ng·h/mL"}, {"measurement": "half-life", "setting": "0.3 mg/body oral", "value": 21.4, "unit": "h"}, {"measurement": "AUC(0-inf)", "setting": "1 mg/body oral", "value": 87.1, "unit": "ng·h/mL"}, {"measurement": "AUC(0-t)", "setting": "1 mg/body oral", "value": 63.4, "unit": "ng·h/mL"}, {"measurement": "half-life", "setting": "1 mg/body oral", "value": 44.3, "unit": "h"}, {"measurement": "AUC(0-inf)", "setting": "3 mg/body oral", "value": 146, "unit": "ng·h/mL"}, {"measurement": "AUC(0-t)", "setting": "3 mg/body oral", "value": 121, "unit": "ng·h/mL"}, {"measurement": "half-life", "setting": "3 mg/body oral", "value": 47.8, "unit": "h"}, {"measurement": "AUC(0-inf)", "setting": "10 mg/body oral", "value": 381, "unit": "ng·h/mL"}, {"measurement": "AUC(0-t)", "setting": "10 mg/body oral", "value": 324, "unit": "ng·h/mL"}, {"measurement": "half-life", "setting": "10 mg/body oral", "value": 45.3, "unit": "h"}, {"measurement": "AUC(0-inf)", "setting": "30 mg/body oral", "value": 795, "unit": "ng·h/mL"}, {"measurement": "AUC(0-t)", "setting": "30 mg/body oral", "value": 657, "unit": "ng·h/mL"}, {"measurement": "half-life", "setting": "30 mg/body oral", "value": 53.6, "unit": "h"}, {"measurement": "Cmax", "setting": "0.3 mg/body oral", "value": 0.629, "unit": "ng/mL"}, {"measurement": "Tmax", "setting": "0.3 mg/body oral", "value": 13, "unit": "h"}, {"measurement": "Cmax", "setting": "1 mg/body oral", "value": 1.49, "unit": "ng/mL"}, {"measurement": "Tmax", "setting": "1 mg/body oral", "value": 20.7, "unit": "h"}, {"measurement": "Cmax", "setting": "3 mg/body oral", "value": 2.11, "unit": "ng/mL"}, {"measurement": "Tmax", "setting": "3 mg/body oral", "value": 28.3, "unit": "h"}, {"measurement": "Cmax", "setting": "10 mg/body oral", "value": 6.01, "unit": "ng/mL"}, {"measurement": "Tmax", "setting": "10 mg/body oral", "value": 26.3, "unit": "h"}, {"measurement": "Cmax", "setting": "30 mg/body oral", "value": 9.81, "unit": "ng/mL"}, {"measurement": "Tmax", "setting": "30 mg/body oral", "value": 28.3, "unit": "h"}, {"measurement": "concentration in blood", "setting": "0.3 mg/body oral, 6 h", "value": 0.368}, {"measurement": "concentration in blood", "setting": "0.3 mg/body oral, 13 h", "value": 0.629}, {"measurement": "concentration in blood", "setting": "0.3 mg/body oral, 21 h", "value": 0.365}, {"measurement": "concentration in blood", "setting": "0.3 mg/body oral, 24 h", "value": 0.31}, {"measurement": "concentration in blood", "setting": "0.3 mg/body oral, 30 h", "value": 0.382}, {"measurement": "concentration in blood", "setting": "1 mg/body oral, 6 h", "value": 0.368}, {"measurement": "concentration in blood", "setting": "1 mg/body oral, 13 h", "value": 1.39}, {"measurement": "concentration in blood", "setting": "1 mg/body oral, 21 h", "value": 1.04}, {"measurement": "concentration in blood", "setting": "1 mg/body oral, 24 h", "value": 0.98}, {"measurement": "concentration in blood", "setting": "1 mg/body oral, 30 h", "value": 0.961}, {"measurement": "concentration in blood", "setting": "1 mg/body oral, 36 h", "value": 1.01}, {"measurement": "concentration in blood", "setting": "1 mg/body oral, 48 h", "value": 0.719}, {"measurement": "concentration in blood", "setting": "1 mg/body oral, 72 h", "value": 0.484}, {"measurement": "concentration in blood", "setting": "1 mg/body oral, 96 h", "value": 0.224}, {"measurement": "concentration in blood", "setting": "3 mg/body oral, 6 h", "value": 0.337}, {"measurement": "concentration in blood", "setting": "3 mg/body oral, 13 h", "value": 1.13}, {"measurement": "concentration in blood", "setting": "3 mg/body oral, 21 h", "value": 1.33}, {"measurement": "concentration in blood", "setting": "3 mg/body oral, 24 h", "value": 1.33}, {"measurement": "concentration in blood", "setting": "3 mg/body oral, 30 h", "value": 1.7}, {"measurement": "concentration in blood", "setting": "3 mg/body oral, 36 h", "value": 1.99}, {"measurement": "concentration in blood", "setting": "3 mg/body oral, 48 h", "value": 1.37}, {"measurement": "concentration in blood", "setting": "3 mg/body oral, 72 h", "value": 0.838}, {"measurement": "concentration in blood", "setting": "3 mg/body oral, 96 h", "value": 0.549}, {"measurement": "concentration in blood", "setting": "3 mg/body oral, 144 h", "value": 0.266}, {"measurement": "concentration in blood", "setting": "10 mg/body oral, 6 h", "value": 2.01}, {"measurement": "concentration in blood", "setting": "10 mg/body oral, 13 h", "value": 3.32}, {"measurement": "concentration in blood", "setting": "10 mg/body oral, 21 h", "value": 3.15}, {"measurement": "concentration in blood", "setting": "10 mg/body oral, 24 h", "value": 3.33}, {"measurement": "concentration in blood", "setting": "10 mg/body oral, 30 h", "value": 3.76}, {"measurement": "concentration in blood", "setting": "10 mg/body oral, 36 h", "value": 5.37}, {"measurement": "concentration in blood", "setting": "10 mg/body oral, 48 h", "value": 3.66}, {"measurement": "concentration in blood", "setting": "10 mg/body oral, 72 h", "value": 2.23}, {"measurement": "concentration in blood", "setting": "10 mg/body oral, 96 h", "value": 1.42}, {"measurement": "concentration in blood", "setting": "10 mg/body oral, 144 h", "value": 0.689}, {"measurement": "concentration in blood", "setting": "30 mg/body oral, 6 h", "value": 2.82}, {"measurement": "concentration in blood", "setting": "30 mg/body oral, 13 h", "value": 6.65}, {"measurement": "concentration in blood", "setting": "30 mg/body oral, 21 h", "value": 6.98}, {"measurement": "concentration in blood", "setting": "30 mg/body oral, 24 h", "value": 7.47}, {"measurement": "concentration in blood", "setting": "30 mg/body oral, 30 h", "value": 8.08}, {"measurement": "concentration in blood", "setting": "30 mg/body oral, 36 h", "value": 9.46}, {"measurement": "concentration in blood", "setting": "30 mg/body oral, 48 h", "value": 6.58}, {"measurement": "concentration in blood", "setting": "30 mg/body oral, 72 h", "value": 4.65}, {"measurement": "concentration in blood", "setting": "30 mg/body oral, 96 h", "value": 3.05}, {"measurement": "concentration in blood", "setting": "30 mg/body oral, 144 h", "value": 1.82}]}
